# Assay results reported in the NIST ThermoML archive (doi:10.1021/je300678r).
# “And” between values parts separate entries of the source, which are not always exact repeats. Identical values can stand only once. ± gives the expanded uncertainty stated by the source.
# Key:
# [1] = xn = mol fraction of the nth substance listed; conditions: 298.15 K, 101 kPa, Liquid, Vibrating tube method
# [2] = excess molar enthalpy (molar enthalpy of mixing); xn = mol fraction of the nth substance listed; conditions: 298.15 K, 101 kPa, Liquid, Flow calorimetry
# [3] = refractive index (Na D-line) (dimensionless); xn = mol fraction of the nth substance listed; conditions: 298.15 K, 101 kPa, Liquid, Standard Abbe refractometry
# [4] = refractive index (Na D-line) (dimensionless); conditions: 101.33 kPa, Liquid, Standard Abbe refractometry
# [5] = Liquid; for mass density: 101.33 kPa, Vibrating tube method; for vapor or sublimation pressure: Ebulliometric method (Recirculating still)
structure (smiles),measurement,setting,value
CCC(C)(C)O [2-methylbutan-2-ol] + CC(=O)CC(C)C,mass density,[1]; x2 = 0.1012,804.47 ± 0.38 kg/m3
same,mass density,[1]; x2 = 0.2017,803 ± 0.38 kg/m3
same,mass density,[1]; x2 = 0.3013,801.45 ± 0.37 kg/m3
same,mass density,[1]; x2 = 0.4017,800.01 ± 0.37 kg/m3 and 800 ± 0.37 kg/m3
same,mass density,[1]; x2 = 0.5008,798.73 ± 0.36 kg/m3
same,mass density,[1]; x2 = 0.6006,797.67 ± 0.36 kg/m3
same,mass density,[1]; x2 = 0.7009,796.87 ± 0.36 kg/m3
same,mass density,[1]; x2 = 0.8017,796.33 ± 0.35 kg/m3
same,mass density,[1]; x2 = 0.9007,796.12 ± 0.35 kg/m3
same,excess molar enthalpy,[2]; x2 = 0.1012,0.106 ± 0.00311 kcal/mol
same,excess molar enthalpy,[2]; x2 = 0.2017,0.196 ± 0.0055 kcal/mol
same,excess molar enthalpy,[2]; x2 = 0.3013,0.263 ± 0.00717 kcal/mol
same,excess molar enthalpy,[2]; x2 = 0.4017,0.307 kcal/mol
same,excess molar enthalpy,[2]; x2 = 0.5008,0.327 ± 0.00884 kcal/mol
same,excess molar enthalpy,[2]; x2 = 0.6006,0.321 ± 0.0086 kcal/mol
same,excess molar enthalpy,[2]; x2 = 0.7009,0.288 ± 0.00789 kcal/mol
same,excess molar enthalpy,[2]; x2 = 0.8017,0.227 ± 0.00621 kcal/mol
same,excess molar enthalpy,[2]; x2 = 0.9007,0.132 ± 0.00359 kcal/mol
same,refractive index,[3]; x2 = 0,1.40253 ± 0.00037
same,refractive index,[3]; x2 = 0.0598,1.40217 ± 0.00037
same,refractive index,[3]; x2 = 0.1216,1.40156 ± 0.00036
same,refractive index,[3]; x2 = 0.2171,1.40043 ± 0.00036
same,refractive index,[3]; x2 = 0.4095,1.39811 ± 0.00035
same,refractive index,[3]; x2 = 0.5982,1.39615 ± 0.00034
same,refractive index,[3]; x2 = 0.8202,1.39439 ± 0.00033
same,refractive index,[3]; x2 = 0.9177,1.39383 ± 0.00033
same,refractive index,[3]; x2 = 0.9563,1.39364 ± 0.00033
CCC(C)O (stereo not drawn) [butan-2-ol] + CC(=O)CC(C)C,refractive index,[3]; x2 = 0,1.39512 ± 0.00033
CCC(C)O (stereo not drawn) [butan-2-ol],refractive index,[4]; 297.83 K,1.3951 ± 0.0003
same,refractive index,[4]; 298.15 K,1.39512 ± 0.00033
same,mass density,[5]; 297.83 K,802.7 ± 0.4 kg/m3
same,vapor or sublimation pressure,[5]; 358.16 K,57.27 ± 0.29 kPa
same,vapor or sublimation pressure,[5]; 367.97 K,84.94 ± 0.31 kPa and 85.16 ± 0.75 kPa
same,vapor or sublimation pressure,[5]; 372.43 K,100.62 ± 0.46 kPa
same,vapor or sublimation pressure,[5]; 372.71 K,101.88 ± 0.46 kPa
CC(=O)CC(C)C [4-methylpentan-2-one],refractive index,[4]; 297.84 K,1.3935 ± 0.0003
same,refractive index,[4]; 298.15 K,1.39346 ± 0.00033 and 1.39352 ± 0.00033
same,mass density,[5]; 297.84 K,796.4 ± 0.4 kg/m3
same,vapor or sublimation pressure,[5]; 340.18 K,19.35 ± 0.2 kPa
same,vapor or sublimation pressure,[5]; 340.66 K,19.78 ± 0.2 kPa
same,vapor or sublimation pressure,[5]; 343.42 K,21.92 ± 0.21 kPa
same,vapor or sublimation pressure,[5]; 351.55 K,30.01 ± 0.21 kPa
same,vapor or sublimation pressure,[5]; 352.71 K,31.12 ± 0.23 kPa
same,vapor or sublimation pressure,[5]; 353.11 K,31.71 ± 0.31 kPa
same,vapor or sublimation pressure,[5]; 359.22 K,39.35 ± 0.18 kPa
same,vapor or sublimation pressure,[5]; 359.39 K,39.63 ± 0.21 kPa
same,vapor or sublimation pressure,[5]; 359.58 K,40.05 ± 0.24 kPa
same,vapor or sublimation pressure,[5]; 362.88 K,44.7 ± 0.17 kPa
same,vapor or sublimation pressure,[5]; 365.9 K,49.68 ± 0.16 kPa
same,vapor or sublimation pressure,[5]; 366.61 K,50.66 ± 0.18 kPa
same,vapor or sublimation pressure,[5]; 368.06 K,53.01 ± 0.27 kPa
same,vapor or sublimation pressure,[5]; 368.07 K,53.42 ± 0.24 kPa
same,vapor or sublimation pressure,[5]; 368.14 K,53.26 ± 0.32 kPa
same,vapor or sublimation pressure,[5]; 368.15 K,53.24 ± 0.27 kPa
same,vapor or sublimation pressure,[5]; 368.7 K,54.29 ± 0.21 kPa
same,vapor or sublimation pressure,[5]; 371.34 K,59.43 ± 0.14 kPa
same,vapor or sublimation pressure,[5]; 371.64 K,59.75 ± 0.16 kPa
same,vapor or sublimation pressure,[5]; 371.91 K,60.19 ± 0.18 kPa
same,vapor or sublimation pressure,[5]; 374.37 K,65.18 ± 0.22 kPa
same,vapor or sublimation pressure,[5]; 376.26 K,69.16 ± 0.37 kPa
same,vapor or sublimation pressure,[5]; 376.49 K,69.98 ± 0.37 kPa
same,vapor or sublimation pressure,[5]; 378.8 K,74.83 ± 0.25 kPa
same,vapor or sublimation pressure,[5]; 380.65 K,79.56 ± 0.17 kPa
same,vapor or sublimation pressure,[5]; 381.06 K,80.16 ± 0.25 kPa
same,vapor or sublimation pressure,[5]; 382.66 K,84.16 ± 0.28 kPa
same,vapor or sublimation pressure,[5]; 384.99 K,90.58 ± 0.29 kPa
same,vapor or sublimation pressure,[5]; 388.07 K,98.7 ± 0.66 kPa
same,vapor or sublimation pressure,[5]; 388.31 K,99.4 ± 0.31 kPa
same,vapor or sublimation pressure,[5]; 388.63 K,100.35 ± 0.34 kPa
same,vapor or sublimation pressure,[5]; 388.65 K,100.41 ± 0.34 kPa
same,vapor or sublimation pressure,[5]; 389.06 K,101.85 ± 0.3 kPa
same,vapor or sublimation pressure,[5]; 389.49 K,102.78 ± 0.24 kPa
CC(=O)CC(C)C [4-methylpentan-2-one] + CCCCC(CC)CO,refractive index,[3]; x1 = 1,1.39346 ± 0.00033
